Source: patent publication US20220288201A1, “COMBINATION THERAPY FOR TREATING RAS-MUTANT CANCERS” (H. Lee Moffitt Cancer and Research Institute, Inc., priority 2019, published 2022)
Where two headings read alike, the source gives them in different places.

Tests used:
[1] = tested on: RAS-mutant melanoma cell lines; assay: BRAFi screen against panel of RAS-mutant melanoma cell lines; format: cell-based, human; settings: for IC50: Homo sapiens, four 'BRAFi sensitive' RAS-mutant cell lines, read-out: IC50, growth inhibition
Description: (§1) FIG. 1. […] All other lines are BRAF wild-type and have activating mutations in RAS.
(§2) While oncogene-induced senescence due to overexpressed mutant RAS is an important tumor suppression mechanism, multiple variants of senescence exist (Ito, Y., et al. Trends Cell Biol 27:820-832 (2017); Lasry, A. & Ben-Neriah, Y. Trends Immunol 36:217-28 (2015); Ewald, J. A., et al. J Natl Cancer Inst 102:1536-46 (2010); Mooi, W. J. & Peeper, D.S. N Engl J Med. 355:1037-46 (2006)). With this in mind, experiments were conducted to determine whether paradoxical ERK activation, as driven by BRAFi exposure in the context of RAS-mutant cancers, could cause elevation of ERK pathway signaling to the point of causing senescence-like growth arrest akin to oncogene-induced senescence. To determine the effects of BRAFi treatment on RAS-mutant melanomas, a panel of four BRAFi were screened against eight RAS-mutant melanoma cell lines. the FDA-approved BRAFi vemurafenib, dabrafenib, encorafenib (Dummer, R., et al. J Clin Oncol 31(2013)), and the ‘paradox-breaker PLX8394, which was designed to elicit no paradoxical ERK activation (Zhang, C., et al. Nature 526:583-6 (2015)) were tested.

ICP 298 = assay: Colony growth assay, ICP 298; format: cell-based; settings: Homo sapiens, ICP 298, RAS Q61L
Description: as §1, §2

Sk-mel-119 = assay: Colony growth assay, Sk-mel-119; format: cell-based; settings: Homo sapiens, Sk-mel-119, RAS Q61R
Description: as §1, §2

[2] = tested on: NRASQ61R-mutant melanoma cells (C57BL/6); assay: Transplanted NRASQ61R-mutant melanoma model in C57BL/6 mice; format: in vivo, mouse; settings: dabrafenib 3.5 mg/kg/day, RMP1-14 thrice weekly, start day 7
Procedure: FIG. 11. Transplanted NRASQ61R-mutant melanoma cells (C57BL/6) regress when dabrafenib-induced PEASA is combined with anti-PD1 immunotherapy. 1 million melanoma cells were injected in both flanks of C57BL/6 mice and therapy started at 7 days. […] mice per condition across 2 independent trials; mean tumor volume +/−SEM.
Because senescence is associated with a specific inflammatory gene expression signature, RNAseq was used to characterize responsive NRAS-mutant cell lines (IPC298, SK-MEL-119) following BRAFi exposure.

501mel = assay: Colony growth assay, 501mel; format: cell-based; settings: Homo sapiens, RAS G12D
Description: as §1, §2

GAK = assay: Colony growth assay, GAK; format: cell-based; settings: Homo sapiens
Description: as §1, §2

A375 = assay: Colony growth assay, A375 (BRAF mutant positive control); format: cell-based; settings: Homo sapiens, A-375
Description: as §1, §2

[3] = cited from earlier work; for induction of cutaneous squamous cell carcinoma (cuSCC), patients: treated patients, averaged across multiple studies
[4] = tested on: IPC 298 and 501mel cell line xenografts; assay: IPC 298 and 501mel cell line xenografts in mice; format: in vivo, mouse; settings: 3.5 mg/kg daily; NOD/SCID gamma or athymic nude mice
Procedure: FIG. 4. […] (A) IPC 298 cell line xenografts were established in NOD/SCID gamma mice by co-injecting 1 million IPC 298 cells subcutaneously. Daily treatment with vehicle (n=20) or 3.5 mg/kg dabrafenib (n=20) was initiated at ‘Day 0,’ or 7 days post injection. Tumor volume was tracked by caliper measurement, calculated using V=½lw2. Student's t-test compares differences in tumor volumes at sacrifice in both conditions versus vehicle control (B) Representative image of mice from (A) at experimental endpoint. (C) Phospho-ERK western-blotting of tumor lysates from a short-term pharmacodynamic experiment from IPC 298 lysates harvested from mice treated orally with vehicle or 3.5 mg/kg dabrafenib for 5 days. (D) 501mel cell line xenografts were established in athymic nude mice by co-injecting 4 million 501mel cells mixed with 1 million normal dermal fibroblasts (NDF) per site. Mice were treated with vehicle (n=11) or 3.5 mg/kg dabrafenib (n=10), 12 days post injection. As engraftment with 501mel/NDF is inefficient, only tumors with diameters >3 mm at treatment initiation are detailed here. Student's t-test compares differences in tumor volumes at sacrifice in both conditions versus vehicle control. (E) Representative image of mice from (D) at experimental endpoint. […] Quantitative data represent at least three independent experiments. […]

[5] = tested on: IL-6 secretion, 501 MEL melanoma cell lines; assay: IL-6 secreted in the media of 501 MEL cells; format: cell-based, human; settings: acute 24 hours or chronic 7 days, vs control-treated
Description: Substantial increases in the secretion of this canonical senescence-associated cytokine are reliably measured in all settings, up to 3-fold in magnitude, showing essential features of the ERK-hyperactivation mediated senescence response.

MelJUSO = assay: Colony growth assay, MelJUSO; format: cell-based; settings: Homo sapiens, MEL-JUSO, RAS Q61L (HRASG13D)
Description: as §1, §2

CP66 = assay: Colony growth assay, CP66; format: cell-based; settings: Homo sapiens, CP66, RAS Q61K
Description: as §1, §2

Sk-mel-2 = assay: Colony growth assay, Sk-mel-2; format: cell-based; settings: Homo sapiens, Sk-mel-2, RAS Q61R
Description: as §1, §2

WM1366 = assay: Colony growth assay, WM1366; format: cell-based; settings: Homo sapiens, WM1366, RAS Q61L
Description: as §1, §2

[6] = in vivo; cited from earlier work
[7] = GAK, RAS Q61K, colony growth, read-out: IC50
[8] = A375, RAS WT (BRAFV600E), colony growth, read-out: IC50

Compound | IC50 [1] | IC50 (ICP 298) | IC50 (Sk-mel-119) | tumor response (tumor volume) [2] | IC50 (501mel) | IC50 (GAK; [7]) | IC50 (A375) | induction of cutaneous squamous cell carcinoma (cuSCC), patients [3] | tumor growth in vivo [4] | increase in secretion of IL-6 [5] | IC50 (MelJUSO) | IC50 (CP66) | IC50 (Sk-mel-2) | IC50 (WM1366) | IC50 (A375; [8]) | plasma elimination half-life [6] | activity against RAS mutant cell lines ([1]; RAS mutant cell lines) | IC50 (GAK) | cuSCC harboring activating RAS mutations ([3]; cuSCC from treated patients, 10-20% in sporadic cuSCC)
CC(C)(C)c1nc(-c2cccc(NS(=O)(=O)c3c(F)cccc3F)c2F)c(-c2ccnc(N)n2)s1 [Dabrafenib] | < 100 nM | 31 nM | 1.8 nM | partial responses, but progressive disease | 21 nM | 700 nM | 2.5 nM | 6% | prevents RAS-mutant tumor growth | up to 3 fold | 100 nM | 1000 nM | 240 nM | > 5000 nM |  |  |  |  | 
COC(=O)N[C@@H](C)CNc1nccc(-c2cn(C(C)C)nc2-c2cc(Cl)cc(NS(C)(=O)=O)c2F)n1 [Encorafenib] | < 100 nM | 0.9 nM | 0.49 nM |  | 7.5 nM | 1600 nM |  |  |  |  | 26 nM | 520 nM | 550 nM | > 2000 nM | 0.71 nM | approximately 6 hours |  |  | 
O=C(c1c(F)ccc(NS(=O)(=O)N2CC[C@@H](F)C2)c1F)c1c[nH]c2ncc(-c3cnc(C4CC4)nc3)cc12 [PLX8394] |  | > 1000 nM | > 1000 nM |  | > 1000 nM | > 1000 nM |  |  |  |  | > 1000 nM | > 1000 nM | > 1000 nM | > 1000 nM | 180 nM |  | never showed activity |  | 
CCCS(=O)(=O)Nc1ccc(F)c(C(=O)c2c[nH]c3ncc(-c4ccc(Cl)cc4)cc23)c1F [Vemurafenib] |  | 380 nM | 540 nM |  | 3000 nM |  |  | 22% |  |  | > 6600 nM | > 6600 nM | 2500 nM | > 6600 nM | 68 nM |  |  | 5300 nM | Approximately 60%
